Source: US7851637B2, “Compounds and methods for inhibiting the interaction of BCL proteins with binding partners” (Infinity Pharmaceuticals, Inc., priority 2004, dated 2010)

How the values were obtained:
[1] = biological target: Bcl-xL (Homo sapiens, UniProt Q07817); experiment: Bcl-xL binding affinity analysis (fluorescence polarization binding assay); parameters: scale not given here
Summary of the method: (§1)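 Quantitative binding by polarized-fluorescence detection; in vitro, no cells involved.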

[2] = biological target: Bcl-2 (Homo sapiens, UniProt P10415); experiment: Bcl-2 binding affinity analysis (fluorescence polarization binding assay)
Chain of Bcl-2 (P10415 whole entry): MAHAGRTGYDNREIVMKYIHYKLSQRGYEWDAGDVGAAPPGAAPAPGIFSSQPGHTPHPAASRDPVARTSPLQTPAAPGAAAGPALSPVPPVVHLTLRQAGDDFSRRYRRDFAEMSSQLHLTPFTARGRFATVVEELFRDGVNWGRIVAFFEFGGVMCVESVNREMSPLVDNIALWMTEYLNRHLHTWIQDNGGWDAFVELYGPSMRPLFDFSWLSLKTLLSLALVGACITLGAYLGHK
Summary of the method: as §1

Chain of Bcl-xL (Q07817 whole entry): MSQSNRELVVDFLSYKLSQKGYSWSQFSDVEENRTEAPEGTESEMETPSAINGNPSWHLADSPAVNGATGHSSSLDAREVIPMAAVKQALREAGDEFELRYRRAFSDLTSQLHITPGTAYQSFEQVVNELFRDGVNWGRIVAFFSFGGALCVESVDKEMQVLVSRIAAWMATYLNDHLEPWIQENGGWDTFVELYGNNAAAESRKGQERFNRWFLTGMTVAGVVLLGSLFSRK

| Compound | Bcl-XL binding affinity Ki [1] | Ki [2] [nM] |
| --- | --- | --- |
| C[C@@H]1[C@@H](NC(=O)[C@@H]2[C@H]([C@H](C)O)[C@H](CO)ON2CCCCN(CCN(C)C)Cc2ccccc2)C[C@H]2C[C@@H]1C2(C)C [Compound 547] | ♯ | 800 to 6000 |
| C[C@@H](O)[C@H]1[C@@H](CO)ON(Cc2cccc(C#CC(O)c3ccc(-n4ccnc4)cc3)c2)[C@H]1C(=O)NCCCN(C)c1ccccc1 (stereo partly drawn) [Compound 42] | ♯♯ | 800 to 6000 |
| CC(C)=CCC/C(C)=C/CNC(=O)[C@H]1[C@@H]([C@@H](C)O)[C@@H](CO)ON1Cc1cccc(C#CC(C)(O)c2ccccc2)c1 (stereo partly drawn) [Compound 45] | ♯ | 6000 to 50000 |
| CC(O)C1C(CO)ON(Cc2cccc(C(=O)NCCc3ccccc3)c2)C1C(=O)NC1CC2CC(C1C)C2(C)C (stereo not drawn) [Compound 503] | ♯ | < 800 |
| C[C@@H](O)[C@@H]1C(C(=O)NCCCN(C)c2ccc(Cl)cc2)N(Cc2cccc(C#CCNC(=O)c3ccccc3)c2)O[C@@H]1CO (stereo partly drawn) [Compound 62] | ♯♯ | 6000 to 50000 |
| C[C@@H]1[C@@H](NC(=O)[C@@H]2[C@H]([C@H](C)O)[C@H](CO)ON2Cc2cccc(-c3cccc(C(=O)NC[C@@H]4CCCN4C)c3)c2)C[C@H]2C[C@@H]1C2(C)C [Compound 104] | ♯ | < 800 |
| COc1c(CN2O[C@@H](CO)[C@@H]([C@H](C)O)[C@H]2C(=O)N[C@H]2C[C@H]3C[C@@H]([C@@H]2C)C3(C)C)cccc1-c1ccc(C(=O)N(C)C)cc1 [Compound 174] | ♯ | < 800 |
| CC(CN(C)C)NC(=O)c1cccc(-c2cccc(CN3O[C@@H](CO)[C@@H]([C@H](C)O)[C@H]3C(=O)N[C@H]3C[C@H]4C[C@@H]([C@@H]3C)C4(C)C)c2)c1 (stereo partly drawn) [Compound 110] | ♯ | < 800 |
| C[C@@H]1[C@@H](NC(=O)[C@@H]2[C@H]([C@H](C)O)[C@H](CO)ON2Cc2cccc(-c3cccc(C(=O)NCCN4CCOCC4)c3)c2)C[C@H]2C[C@@H]1C2(C)C [Compound 132] | ♯♯ | < 800 |
| C[C@@H]1[C@@H](NC(=O)[C@@H]2C([C@H](C)O)[C@H](CO)ON2Cc2cccc(C#CC(C)(O)c3ccccc3)c2)C[C@H]2C[C@@H]1C2(C)C (stereo partly drawn) [Compound 43] | ♯♯ | 800 to 6000 |
| C[C@H](O)[C@@H]1[C@H](CO)ON(Cc2cccc(CN(CCN(C)C)Cc3ccccc3)c2)[C@@H]1C(=O)Nc1cccc(-c2ccccc2)c1 [Compound 515] | ♯ | < 800 |
| CCN1CCC[C@H]1CNC(=O)c1cccc(-c2cccc(CN3O[C@@H](CO)[C@@H]([C@H](C)O)[C@H]3C(=O)N[C@H]3C[C@H]4C[C@@H]([C@@H]3C)C4(C)C)c2OC)c1 [Compound 156] | ♯ | < 800 |
| C[C@@H]1[C@@H](NC(=O)[C@@H]2[C@H]([C@H](C)O)[C@H](CO)ON2Cc2cccc(-c3cccc(C(=O)N4CC[C@H](N(C)C)C4)c3)c2)C[C@H]2C[C@@H]1C2(C)C [Compound 119] | ♯♯ | < 800 |
| CC(C)CC(CN(C)C)N(Cc1cccc(CN2OC(CO)C(C(C)O)C2C(=O)NC2CC3CC(C2C)C3(C)C)c1)Cc1cccc2c1OCO2 (stereo not drawn) [Compound 302] | ♯ | < 800 |
| CC(O)C1C(CO)ON(Cc2cccc(CN3CCC(c4ccccc4)C3CN(C)C)c2)C1C(=O)NC1CC2CC(C1C)C2(C)C (stereo not drawn) [Compound 450] | ♯ | < 800 |
| C[C@H](O)[C@@H]1[C@H](CO)ON(Cc2cccc(CN(CCN(C)C)Cc3ccccc3)c2)[C@@H]1C(=O)NC1CCN(Cc2ccccc2)CC1 [Compound 527] | ♯ | 6000 to 50000 |
| CC(C)C[C@@H](CN(C)C)N(Cc1ccccc1)Cc1cccc(CN2O[C@@H](CO)[C@@H]([C@H](C)O)[C@H]2C(=O)NCCCNC(=O)OC(C)(C)C)c1 [Compound 543] | ♯ | 6000 to 50000 |
| C[C@@H]1[C@@H](NC(=O)[C@@H]2[C@H]([C@H](C)O)[C@H](CO)ON2Cc2cccc(N(CCN(C)C)Cc3ccccc3)c2)C[C@H]2C[C@@H]1C2(C)C [Compound 235] | ♯♯ | < 800 |
| C[C@H](O)[C@@H]1[C@H](CO)ON(Cc2cccc(N3CCN(C(=O)N(C)C)CC3)c2)[C@@H]1C(=O)NC1C[C@H]2C[C@@H]([C@@H]1C)C2(C)C (stereo partly drawn) [Compound 291] | ♯ | < 800 |
| CC(C)CC(CN(C)C)N(Cc1cccc(CN2OC(CO)C(C(C)O)C2C(=O)NC2CC3CC(C2C)C3(C)C)c1)Cc1cccc(C(C)(C)C)c1O (stereo not drawn) [Compound 338] | ♯ | < 800 |

| Compound | Bcl-XL binding affinity Ki [1] | Ki [2] [nM] |
| --- | --- | --- |
| CCC(C)C(CN(C)C)N(Cc1cccc(CN2OC(CO)C(C(C)O)C2C(=O)NC2CC3CC(C2C)C3(C)C)c1)Cc1c(O)cccc1F (stereo not drawn) [Compound 440] | ♯ | < 800 |
| C[C@@H]1[C@@H](NC(=O)[C@@H]2[C@H]([C@H](C)O)[C@H](CO)ON2CCCCN(CCN(C)C)Cc2ccccc2F)C[C@H]2C[C@@H]1C2(C)C [Compound 550] | ♯ | 800 to 6000 |
| C[C@@H]1[C@@H](NC(=O)[C@@H]2C([C@H](C)O)[C@H](CO)ON2Cc2cccc(CN(CCN(C)C)Cc3ccccc3-c3ccccc3F)c2)C[C@H]2C[C@@H]1C2(C)C (stereo partly drawn) [Compound 343] | ♯ | < 800 |
| C[C@@H]1C(NC(=O)[C@@H]2[C@H]([C@H](C)O)[C@H](CO)ON2Cc2cccc(-c3ccc(NC(=O)N(C)C)cc3)c2)C[C@@H]2CC1C2(C)C (stereo partly drawn) [Compound 283] | ♯♯ | < 800 |
| COC(=N)c1ccc(-c2cccc(CN3O[C@@H](CO)[C@@H]([C@H](C)O)[C@H]3C(=O)NC3C[C@@H]4CC([C@@H]3C)C4(C)C)c2)cc1 (stereo partly drawn) [Compound 270] | ♯ | < 800 |
| C[C@@H]1[C@@H](NC(=O)[C@@H]2[C@H]([C@H](C)O)[C@H](CO)ON2CCCCN(CCN(C)C)CC2CCCCC2)C[C@H]2C[C@@H]1C2(C)C [Compound 553] | ♯ | 800 to 6000 |
| CC(O)C1C(CO)ON(Cc2cccc(CN3Cc4ccccc4C3C(=O)N(C)C)c2)C1C(=O)NC1CC2CC(C1C)C2(C)C (stereo not drawn) [Compound 469] | ♯ | < 800 |
| C[C@@H]1[C@@H](NC(=O)[C@@H]2[C@H]([C@H](C)O)[C@H](CO)ON2Cc2cccc(-c3cccc(S(C)(=O)=O)c3)c2)C[C@H]2C[C@@H]1C2(C)C [Compound 200] | ♯ | < 800 |
| C[C@@H]1[C@@H](NC(=O)[C@@H]2[C@H]([C@H](C)O)[C@H](CO)ON2Cc2cccc(-c3cccc(C(=O)NCCO)c3)c2)C[C@H]2C[C@@H]1C2(C)C [Compound 218] | ♯ | < 800 |
| C[C@@H]1[C@@H](NC(=O)[C@@H]2[C@H]([C@H](C)O)[C@H](CO)ON2CCCCN(CCc2ccccc2)CCN(C)C)C[C@H]2C[C@@H]1C2(C)C [Compound 546] | ♯ | 800 to 6000 |
| C[C@@H](O)[C@H]1[C@@H](CO)ON(Cc2cccc(C#CC(O)c3ccoc3)c2)[C@H]1C(=O)NCCCN(C)c1ccccc1 (stereo partly drawn) [Compound 36] | ♯♯ | 800 to 6000 |
| C[C@@H]1[C@@H](NC(=O)[C@@H]2[C@H]([C@H](C)O)[C@H](CO)ON2Cc2cccc(-c3ccc(-n4ccnc4)cc3)c2)C[C@H]2C[C@@H]1C2(C)C [Compound 117] | ♯♯ | < 800 |
| CC(O)C1C(CO)ON(Cc2cccc(CN(CCN(C)C)Cc3ccccc3-c3cccc(F)c3)c2)C1C(=O)NC1CC2CC(C1C)C2(C)C (stereo not drawn) [Compound 342] | ♯ | < 800 |
| C[C@@H]1[C@@H](NC(=O)[C@@H]2[C@H]([C@H](C)O)[C@H](CO)ON2Cc2cccc(-c3cccc(C(=O)NCC4CC4)c3)c2)C[C@H]2C[C@@H]1C2(C)C [Compound 145] | ♯♯ | < 800 |
| CON(C)C(=O)c1ccc(-c2cccc(CN3O[C@@H](CO)[C@@H]([C@H](C)O)[C@H]3C(=O)N[C@H]3C[C@H]4C[C@@H]([C@@H]3C)C4(C)C)c2)cc1 [Compound 124] | ♯ | < 800 |
| CCOc1cccc(CN(Cc2cccc(CN3O[C@@H](CO)C([C@H](C)O)[C@H]3C(=O)N[C@H]3C[C@H]4C[C@@H]([C@@H]3C)C4(C)C)c2)[C@@H](CC(C)C)CN(C)C)c1O (stereo partly drawn) [Compound 334] | ♯ | < 800 |
| CC(O)[C@H]1[C@@H](CO)ON(Cc2cccc(C#CC(O)c3ccc(F)cc3)c2)[C@H]1C(=O)NCCCN(C)c1ccccc1 (stereo partly drawn) [Compound 29] | ♯ | 800 to 6000 |
| CC(C)C[C@@H](CN(C)C)N(Cc1ccccc1)Cc1cccc(CN2O[C@@H](CO)[C@@H]([C@H](C)O)[C@H]2C(=O)NCCCn2ccnc2)c1 [Compound 529] | ♯ | 6000 to 50000 |
| C[C@H](O)[C@@H]1[C@H](CO)ON(Cc2cccc(CN(CCN(C)C)Cc3ccccc3)c2)[C@@H]1C(=O)NCCc1cccc(-c2ccccc2)c1 [Compound 513] | ♯ | 800 to 6000 |
